We go through 2 compounds from PMC11503492, “Activity-Based DNA-Encoded Library Screening for Selective Inhibitors of Eukaryotic Translation” (ACS Central Science, 2024).

In this assay the test system is HeLa-derived IVTT. Nature of the assay: HeLa lysate IVTT microplate activity assay. Particulars: dose-response. Format: biochemical, human. From the text: 421 region sequences were matched to an alpha numeric DNA region identifier (11xx, 22xx,
422 13xx, 24xx, 15xx, 26xx, respectively), while allowing a 1-bp mutation per encoding region.
423 No insertions or deletions were tolerated.
424 match a known encoding region identifier at all six encoding positions (2) contained a
425 single point mutation in more than 4 of the DNA encoding regions (3) contained a UMI
427 presented in the library or positive control designs or (5) contained a minimum Phred
428 quality score less than 20. A sum of UMI counts for all remaining unique combinations
429 of encoding region identifiers was then determined using a UMI aggregation algorithm;
430 1 bp mutations were considered the same UMI. Encoding region identifiers were then
431 converted to library BB identifiers per the library design with an associated UMI count.
432 Any encoding region/ bead-specific barcode combinations with a UMI count below a
433 manually determined threshold (10) were discarded. The remaining ”valid beads” were […]
440 progress was immediately monitored (λex = 480 nm, λem = 530 nm, 27 °C, 2 h). […]
441 tive activity was calculated using the slope of fluorescence increase over time (at 15–30 […]
449 immediately monitored (λex = 480 nm, λem = 530 nm, 27 °C, 2 h). […]
450 culated using the slope of fluorescence increase over time (15–30 min post reaction initia- […]

Molecules are shown by their SMILES.

As for `Cc1cccc2ccnc(N(C(=O)[C@H]3CCCN(C(=O)c4cccc5c(C#N)c[nH]c45)C3)[C@@H]3CCCNC3)c12` [Compound 8], the “activity in HeLa-derived (human) IVTT (in words)” value is reported as “active”. Take `Cc1cccc2ccnc(N(C(=O)C3CCN(C(=O)c4cccc5c(C#N)c[nH]c45)CC3)[C@@H]3CCCNC3)c12` [Compound 9]: the “activity in HeLa-derived (human) IVTT (in words)” value is reported as “active”.
